Consider 20 compounds from patent US20190282558A1, “Methods of Treating Zika Virus Infection” (Emergent Virology LLC, priority 2016, published 2019).

Each structure is given as a SMILES string. Where two headings read alike, the source gives them in different places.

Holding throughout (assay type): cell-based
Series [1] concerns Zika virus, FSS 13025 strain (ZIKV, Cambodia 2010). The series can be described thus: Yield reduction assay followed by plaque assay in Vero cells, ZIKV Cambodia 2010. To be noted: for IC50: Zika virus, 96 h, read-out: ZIKV, Cambodian 2010 IC50; for IC50 (summary in words): summary of Table 3. The method, then: (§1) The iminosugar compounds set forth in Table 4, below, were evaluated for antiviral activity against Zika virus, FSS 13025 strain (ZIKV, Cambodia 2010) and PR ABC strain (ZIKV, PR2015) in an yield reduction assay followed by a plaque assay.
In the yield reduction assay, Vero cells were seeded in 24-well plates and incubated overnight. The next day, serial dilutions of a given compound were prepared at 300 μM, 100 μM, 30 μM, 10 μM, and 3.0 μM. Growth medium was removed from the cells and the serial dilutions of the given compound were added in duplicate for one hour. Zika virus, FSS 13025 strain (ZIKV, Cambodia 2010) was added at a multiplicity of infection (MOI) of 0.01 for one hour. Growth medium was added to 1 mL and the cells were incubated for 4 days. Thereafter, cell supernatants were harvested, cleared of cell debris by centrifugation, and stored at −80° C. until further analysis for viral content in a plaque assay.
Plaque assays were performed by seeding Vero cells in 24-well plates and allowing the cells to adhere overnight. The next day each of the harvested supernatants from the yield-reduction assay were serially diluted 10-fold, growth medium was removed from the cells, and the adhered cells were infected with the dilutions of the supernatants for 1 h. Methylcellulose was added and the cells were incubated for 3 days. Plaques were visualized by staining the cell monolayer with crystal violet. Relative inhibition was calculated using IDBS XLFIT analysis program.
(§2) The duplicate titers for virus-only (vehicle control) were averaged and used as 0% inhibition. Efficacy data for the compounds were reported as the mean of the duplicates, including the standard deviation (SD) and coefficient of variation (% CV). FIGS. 2A, 2B, 3A, 3B, 4A, 4B, 5A, 5B, 6A, 6B, 7A, 7B, 8A, 8B, 9A, 9B, 10A, 10B, 11A, 11B, 12A, 12B, 13A, 13B, 14A, 14B, and 15 show the in vitro inhibitory effect of the iminosugar compounds against Zika virus, FSS 13025 strain, as set forth in Table 3 below.

Series [2] is described as follows: In vitro cell cytotoxicity (CellTiter-Glo) in Vero cells. To be noted: African green monkey, 3-5 days, max concentration 500 or 1000 μM, * = average of two values. Background: In ATP-based viability assays light output follows the ATP content of the culture.
The subject of series [3] is Zika virus, PR ABC strain (ZIKV, PR2015). The series can be described thus: Yield reduction assay followed by plaque assay in Vero cells, ZIKV PR2015. To be noted: 120 h, read-out: ZIKV, PR2015 IC50. The method, then: as §1
In the yield reduction assay, Vero cells were seeded in 24-well plates and incubated overnight. The next day, serial dilutions of a given compound were prepared at 200 μM, 100 μM, 20 μM, 4 μM, 0.8 μM, 0.16 μM, 0.03 μM, and 0.01 μM. Growth medium was removed from the cells and the serial dilutions of the given compound were added in duplicate for one hour. Zika virus, PR ABC strain (ZIKV, PR2015) was added at a multiplicity of infection (MOI) of 0.01 for one hour. Growth medium was added to 1 mL and the cells were incubated for 5 days. Thereafter, cell supernatants were harvested, cleared of cell debris by centrifugation, and stored at −80° C. until further analysis for viral content in a plaque assay.
Plaque assays were performed by seeding Vero cells in 24-well plates and allowing the cells to adhere overnight. The next day each of the harvested supernatants from the yield-reduction assay were serially diluted 10-fold, growth medium was removed from the cells, and the adhered cells were infected with the dilutions of the supernatants for 1 h. The cells were incubated with 0.8% carboxymethyl cellulose (CMC) for 3 days. At the end of the incubation, CMC overlay was removed, and the cells were permeabilized with an 80%/20% (V/V) mixture of ethanol and methanol for 10 min at −20° C. Plaques were visualized by performing an immunostaining assay with monoclonal 4G2 (ATCC) which was detected by HRP-conjugated goat anti-mouse antibody and visualized using HRP-conjugated goat anti-mouse polyclonal antibodies. Relative inhibition was calculated using IDBS XLFIT analysis program.
as §2

Where [4] appears, read: Vero cells, MOI 0.01, 4 days, plaque assay of supernatants, * = average of multiple data points.

Consider `O=[N+]([O-])c1cc(-c2cccnn2)ccc1NCCCCCCN1C[C@H](O)[C@@H](O)[C@H](O)[C@H]1CO` [Compound 23, (2R,3R,4R,5S)-2-(hydroxymethyl)-1-(6-((2-nitro-4-(pyridazin-3-yl)phenyl)amino)hexyl)piperidine-3,4,5-triol], for which the IC50 in series [1] (setting [4]) was over 100 µM. In series [2], this compound gave a CC50 of 5190 µM.

For `O=[N+]([O-])c1cc(-c2ccncn2)ccc1NCCCCCCN1C[C@H](O)[C@@H](O)[C@H](O)[C@H]1CO` [Compound 24, (2R,3R,4R,5S)-2-(hydroxymethyl)-1-(6-((2-nitro-4-(pyrimidin-4-yl)phenyl)amino)hexyl)piperidine-3,4,5-triol], the IC50 in series [1] (setting [4]) is over 100 µM. Further, in series [2], the CC50 is 816 µM.

As for `OC[C@@H]1[C@@H](O)[C@H](O)[C@@H](O)CN1CCCCCCNc1c(F)cc(F)cc1F` [Compound 18, (2R,3R,4R,5S)-2-(hydroxymethyl)-1-(6-((2,4,6-trifluorophenyl)amino)hexyl)piperidine-3,4,5-triol trifluoroacetic acid], in series [1] (Vero), the IC50 is over 100 µM. The CC50 in series [2] came out at 413 µM.

With `[N-]=[N+]=Nc1ccc(NCCCCN2C[C@H](O)[C@@H](O)[C@H](O)[C@H]2CO)c([N+](=O)[O-])c1` [Compound 17, (2R,3R,4R,5S)-1-(4-((4-azido-2-nitrophenyl)amino)butyl)-2-(hydroxymethyl)piperidine-3,4,5-triol], the IC50 in series [1] (setting [4]) amounted to 30.4 µM. Besides, the “IC50 (summary in words)” value in series [1] is given as “low micromolar activity”. It took 350 µM to reach half-maximal cytotoxicity in series [2] (CC50).

`CN(C)Cc1ccc([N+](=O)[O-])c(NCCCCCCN2C[C@H](O)[C@@H](O)[C@H](O)[C@H]2CO)c1` [Compound 16, (2R,3R,4R,5S)-1-(6-((5-((dimethylamino)methyl)-2-nitrophenyl)amino)hexyl)-2-(hydroxymethyl)piperidine-3,4,5-triol]: in series [1] (setting [4]), the IC50 was over 100 µM. The same compound showed a CC50 in series [2] of over 1000 µM.

As to `O=[N+]([O-])c1cc(-c2cccnc2)ccc1NCCCCCCN1C[C@H](O)[C@@H](O)[C@H](O)[C@H]1CO` [Compound 25, (2R,3R,4R,5S)-2-(hydroxymethyl)-1-(6-((2-nitro-4-(pyridin-3-yl)phenyl)amino)hexyl)piperidine-3,4,5-triol], the IC50 in series [1] (setting [4]) stood at 17 µM. For the same compound, in series [1], the “IC50 (summary in words)” value is listed as “low micromolar activity”. The same compound had a CC50 in series [2] of 101 µM.

Consider `OC[C@@H]1[C@@H](O)[C@H](O)[C@@H](O)CN1CCCCCCNc1ccc(-n2ncnn2)cc1` [Compound 19, (2R,3R,4R,5S)-1-(6-((4-(2H-tetrazol-2-yl)phenyl)amino)hexyl)-2-(hydroxymethyl)piperidine-3,4,5-triol], for which the IC50 in series [1] (setting [4]) is 140 µM. In series [2], this compound yielded a CC50 of 953 µM.

As to `N/C(=N/O)c1ccc(NCCCCCCN2C[C@H](O)[C@@H](O)[C@H](O)[C@H]2CO)c([N+](=O)[O-])c1` [Compound 4, (E)-N′-hydroxy-3-nitro-4-((6-((2R,3R,4R,5S)-3,4,5-trihydroxy-2-(hydroxymethyl)piperidin-1-yl)hexyl)amino)benzimidamide], the IC50 in series [1] (setting [4]) stood at 77.1 µM. Moreover, the CC50 in series [2] was over 1000 µM.

In the case of `O=[N+]([O-])c1cc(-n2cnnn2)ccc1NCCCCCCN1C[C@H](O)[C@@H](O)[C@H](O)[C@H]1CO` [Compound 5, (2R,3R,4R,5S)-2-(hydroxymethyl)-1-(6-((2-nitro-4-(1H-tetrazol-1-yl)phenyl)amino)hexyl)piperidine-3,4,5-triol], in series [1] (setting [4]), the IC50 came out at 69.3 µM. Moreover, the CC50 in series [2] is over 1000 µM.

`O=[N+]([O-])c1cc(-c2ccccn2)ccc1NCCCCCCN1C[C@H](O)[C@@H](O)[C@H](O)[C@H]1CO` [Compound 22, (2R,3R,4R,5S)-2-(hydroxymethyl)-1-(6-((2-nitro-4-(pyridin-2-yl)phenyl)amino)hexyl)piperidine-3,4,5-triol]: the IC50 in series [1] (setting [4]) is 47 µM. Besides, the “IC50 (summary in words)” value in series [1] is listed as “low micromolar activity”. Besides, the CC50 in series [2] worked out at 99.8 µM.

Consider `CCCCCCCCCN1C[C@H](O)[C@@H](O)[C@H](O)[C@H]1CO` [UV-2, (2R,3R,4R,5S)-2-(hydroxymethyl)-1-nonylpiperidine-3,4,5-triol], for which the IC50 in series [3] (Vero) was determined as 95 µM.

Turning to `O=[N+]([O-])c1ccc(-n2cnnn2)cc1NCCCCCCN1C[C@H](O)[C@@H](O)[C@H](O)[C@H]1CO` [Compound 9, (2R,3R,4R,5S)-2-(hydroxymethyl)-1-(6-((2-nitro-5-(1H-tetrazol-1-yl)phenyl)amino)hexyl)piperidine-3,4,5-triol], the IC50 in series [1] (setting [4]) was over 100 µM. Further, in series [2], the CC50 was over 1000 µM.

As for `O=[N+]([O-])c1cc(NCCCCCCN2C[C@H](O)[C@@H](O)[C@H](O)[C@H]2CO)ccc1-n1cnnn1` [Compound 14, (2R,3R,4R,5S)-2-(hydroxymethyl)-1-(6-((3-nitro-4-(1H-tetrazol-1-yl)phenyl)amino)hexyl)piperidine-3,4,5-triol], the IC50 in series [1] (setting [4]) is 88.5 µM. The compound also returned a CC50 in series [2] of over 1000 µM.

With `O=[N+]([O-])c1ccc(N2CCNCC2)cc1NCCCCCCN1C[C@H](O)[C@@H](O)[C@H](O)[C@H]1CO` [Compound 10, (2R,3R,4R,5S)-2-(hydroxymethyl)-1-(6-((2-nitro-5-(piperazin-1-yl)phenyl)amino)hexyl)piperidine-3,4,5-triol], the IC50 in series [1] (setting [4]) is over 100 µM. In addition, the CC50 in series [2] was over 1000 µM.

Regarding `CCCOCCCCCCN1C[C@H](O)[C@@H](O)[C@H](O)[C@H]1CO` [UV-3, (2R,3R,4R,5S)-2-(hydroxymethyl)-1-(6-propoxyhexyl)piperidine-3,4,5-triol], in series [3] (Vero cells, MOI 0.01, 5 days, plaque assay with immunostaining, * = average of multiple data points), the IC50 was over 100 µM.

As to `O=[N+]([O-])c1cc(-c2ncccn2)ccc1NCCCCCCN1C[C@H](O)[C@@H](O)[C@H](O)[C@H]1CO` [Compound 7, (2R,3R,4R,5S)-2-(hydroxymethyl)-1-(6-((2-nitro-4-(pyrimidin-2-yl)phenyl)amino)hexyl)piperidine-3,4,5-triol], the IC50 in series [1] (setting [4]) came to 18.9 µM. The “IC50 (summary in words)” value in series [1] is on record as “low micromolar activity”. Further, the CC50 in series [2] was over 1000 µM.

Turning to `O=[N+]([O-])c1cc(CN2CCCO2)ccc1NCCCCCCN1C[C@H](O)[C@@H](O)[C@H](O)[C@H]1CO` [Compound 21, (2R,3R,4R,5S)-2-(hydroxymethyl)-1-(6-((4-(isoxazolidin-2-ylmethyl)-2-nitrophenyl)amino)hexyl)piperidine-3,4,5-triol], the IC50 in series [1] (setting [4]) was over 100 µM. The same compound came in with a CC50 in series [2] of 2130 µM.

Turning to `O=[N+]([O-])c1cc(-n2nccn2)ccc1NCCCCCCN1C[C@H](O)[C@@H](O)[C@H](O)[C@H]1CO` [Compound 3, (2R,3R,4R,5S)-2-(hydroxymethyl)-1-(6-((2-nitro-4-(2H-1,2,3-triazol-2-yl)phenyl)amino)hexyl)piperidine-3,4,5-triol], the IC50 in series [1] (setting [4]) came out at 106 µM. In series [2], the CC50 came out at 245 µM.

`O=[N+]([O-])c1cc(NCCCCCCN2C[C@H](O)[C@@H](O)[C@H](O)[C@H]2CO)ccc1-n1cccn1` [Compound 13, (2R,3R,4R,5S)-2-(hydroxymethyl)-1-(6-((3-nitro-4-(1H-pyrazol-1-yl)phenyl)amino)hexyl)piperidine-3,4,5-triol]: the IC50 in series [1] (setting [4]) is over 100 µM. The CC50 in series [2] was over 1000 µM.

With `O=[N+]([O-])c1cc(-n2ncnn2)ccc1NCCCCCCN1C[C@H](O)[C@@H](O)[C@H](O)[C@H]1CO` [Compound 6, (2R,3R,4R,5S)-2-(hydroxymethyl)-1-(6-((2-nitro-4-(2H-tetrazol-2-yl)phenyl)amino)hexyl)piperidine-3,4,5-triol], half-maximal cytotoxicity in series [2] (CC50) was put at 953 µM.

For orientation: IC50 means the concentration that gives 50% inhibition. As a reminder, the CC50 is the concentration giving 50% cytotoxicity.
